Test results published in patent US9505749B2, “Quinazolinone compounds and derivatives thereof” (AMGEN INC., priority 2012, dated 2016).
Like-named read-outs stand apart in the source and are kept apart here.

Tests used:
[1] = test system: Axin2 accumulation in SW480 cells; assay: Axin2 384 immunofluorescence assay; type: cell-based; conditions: Homo sapiens, read-out: Axin2 384 IF EC50
PARP1 = PARP1 (Homo sapiens (Human), UniProt P09874); assay: PARP1 biochemical assay (Trevigen kit)
Excerpt: PARP1 biochemical assay was purchased as a kit from Trevigen (cat.#4676-096-K) and used per manufacturers recommendations.

PARP2 = PARP2 (Homo sapiens (Human), UniProt Q9UGN5); assay: PARP2 biochemical assay (BPS kit)
[2] = test system: total β-catenin in SW480 colorectal cells; assay: Total β-catenin MSD 96-well plate assay for SW480 cells; conditions: Homo sapiens, SW480, read-out: SW480-Total beta-catenin (TBC) IC50 IP
[3] = molecular target: 6×HIS-tankyrase 2 (946-1162) (Homo sapiens (Human), UniProt Q9H2K2); assay: Tankyrase 2 biochemical assay (AlphaLisa, PARsylation); conditions: 250 nM NAD; read-out: TNKS2 IC50
[4] = molecular target: 6×HIS-tankyrase1 (1091-1325) (Homo sapiens (Human), UniProt O95271); assay: Tankyrase 1 biochemical assay (AlphaLisa, PARsylation); conditions: 400 nM NAD, 60 minutes at RT; read-out: TNKS1 IC50
Chain of 6×HIS-tankyrase1 (1091-1325) (O95271 1091-1325): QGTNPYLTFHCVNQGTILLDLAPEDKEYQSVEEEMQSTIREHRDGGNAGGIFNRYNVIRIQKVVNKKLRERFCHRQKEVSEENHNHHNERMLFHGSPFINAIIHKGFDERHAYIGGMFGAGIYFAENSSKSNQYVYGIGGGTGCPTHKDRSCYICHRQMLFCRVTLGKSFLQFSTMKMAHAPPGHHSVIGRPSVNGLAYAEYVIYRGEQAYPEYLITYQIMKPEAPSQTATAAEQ

Chain of PARP2 (Q9UGN5 whole entry): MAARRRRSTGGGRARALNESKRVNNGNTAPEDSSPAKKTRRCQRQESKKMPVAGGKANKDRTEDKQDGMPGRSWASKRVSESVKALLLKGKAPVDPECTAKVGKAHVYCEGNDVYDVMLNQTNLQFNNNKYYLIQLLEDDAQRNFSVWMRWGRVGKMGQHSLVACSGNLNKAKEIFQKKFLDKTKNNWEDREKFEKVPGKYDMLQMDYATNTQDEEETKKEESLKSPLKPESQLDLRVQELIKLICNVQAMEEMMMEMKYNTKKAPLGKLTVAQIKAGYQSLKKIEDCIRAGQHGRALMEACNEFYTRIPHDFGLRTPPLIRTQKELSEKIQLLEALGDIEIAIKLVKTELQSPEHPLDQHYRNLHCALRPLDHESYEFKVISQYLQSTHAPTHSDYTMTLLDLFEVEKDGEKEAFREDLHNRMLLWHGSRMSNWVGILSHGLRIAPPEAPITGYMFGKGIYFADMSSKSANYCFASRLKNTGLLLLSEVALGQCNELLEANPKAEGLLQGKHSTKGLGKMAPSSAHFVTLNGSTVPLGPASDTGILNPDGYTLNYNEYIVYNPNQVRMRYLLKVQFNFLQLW
Chain of PARP1 (P09874 whole entry): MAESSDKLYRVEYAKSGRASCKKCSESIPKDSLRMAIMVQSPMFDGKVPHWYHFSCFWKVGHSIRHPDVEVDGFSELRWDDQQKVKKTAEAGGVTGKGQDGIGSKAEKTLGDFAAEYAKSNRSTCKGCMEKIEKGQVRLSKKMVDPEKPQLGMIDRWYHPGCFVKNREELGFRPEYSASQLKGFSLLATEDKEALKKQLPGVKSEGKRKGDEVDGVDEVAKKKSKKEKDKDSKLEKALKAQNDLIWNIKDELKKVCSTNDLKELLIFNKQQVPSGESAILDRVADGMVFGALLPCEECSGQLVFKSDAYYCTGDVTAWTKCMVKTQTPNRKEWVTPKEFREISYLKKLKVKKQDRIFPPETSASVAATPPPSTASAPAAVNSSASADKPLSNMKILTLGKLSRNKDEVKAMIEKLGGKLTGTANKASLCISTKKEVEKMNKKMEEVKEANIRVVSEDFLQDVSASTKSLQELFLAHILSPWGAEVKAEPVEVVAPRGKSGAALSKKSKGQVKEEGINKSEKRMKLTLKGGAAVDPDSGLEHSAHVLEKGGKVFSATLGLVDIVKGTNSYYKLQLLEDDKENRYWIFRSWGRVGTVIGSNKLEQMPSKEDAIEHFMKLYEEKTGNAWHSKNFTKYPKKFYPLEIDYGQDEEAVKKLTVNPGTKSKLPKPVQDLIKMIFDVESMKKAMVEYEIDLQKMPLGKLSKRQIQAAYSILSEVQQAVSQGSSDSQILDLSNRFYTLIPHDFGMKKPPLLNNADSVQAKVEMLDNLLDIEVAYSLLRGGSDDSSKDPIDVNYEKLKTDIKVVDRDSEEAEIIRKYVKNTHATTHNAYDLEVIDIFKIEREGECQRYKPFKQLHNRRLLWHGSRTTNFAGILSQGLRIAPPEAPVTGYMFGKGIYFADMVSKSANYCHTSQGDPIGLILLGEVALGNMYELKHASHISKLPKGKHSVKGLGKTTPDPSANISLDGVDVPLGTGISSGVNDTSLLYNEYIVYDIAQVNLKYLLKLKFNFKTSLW
Chain of 6×HIS-tankyrase 2 (946-1162) (Q9H2K2 946-1162): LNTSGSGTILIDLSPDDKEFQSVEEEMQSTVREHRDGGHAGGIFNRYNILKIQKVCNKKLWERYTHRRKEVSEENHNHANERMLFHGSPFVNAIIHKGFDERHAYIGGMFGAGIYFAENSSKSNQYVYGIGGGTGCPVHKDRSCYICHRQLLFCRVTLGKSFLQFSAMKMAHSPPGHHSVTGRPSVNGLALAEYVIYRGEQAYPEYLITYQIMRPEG

With `O=C(CCc1nc2ccccc2c(=O)[nH]1)N[C@H]1CC[C@H](c2nnc(-c3ccccc3)o2)CC1` [Example 2, 3-(4-oxo-3,4-dihydro-2-quinazolinyl)-N-(trans-4-(5-phenyl-1,3,4-oxadiazol-2-yl)cyclohexyl)propanamide] the EC50 ([1]; SW480 cells, 24 hours) was 642 nM, the IC50 (PARP1) was 2.7 µM and the IC50 (PARP2) was 982 nM. The IC50 [2] was 79.7 nM.

`O=C(CCCc1nc2ccccc2c(=O)[nH]1)N[C@H]1CC[C@H](c2nnc(-c3ccc(F)cc3)o2)CC1` [Example 28, N-(trans-4-(5-(4-fluorophenyl)-1,3,4-oxadiazol-2-yl)cyclohexyl)-4-(4-oxo-3,4-dihydro-2-quinazolinyl)butanamide] gave an IC50 [3] of 0.303 nM, an EC50 ([1]; SW480 cells, 24 hours) of 18.5 nM and an IC50 (PARP2) of 1760 nM. For the same compound, the IC50 [2] was 15.9 nM.

Work on `O=C(CCSc1nc2ccccc2c(=O)[nH]1)N[C@H]1C[C@@H](c2nnc(-c3ccccc3)o2)C1` [Example 39, 3-((4-oxo-3,4-dihydroquinazolin-2-yl)thio)-N-((1s,3s)-3-(5-phenyl-1,3,4-oxadiazol-2-yl)cyclobutyl)propanamide] yielded an IC50 [4] of 0.405 nM, an IC50 [3] of 0.389 nM and an IC50 (PARP2) of 1900 nM.

In the case of `O=C(CCSc1nc2ccccc2c(=O)[nH]1)N[C@H]1C[C@H](c2nnc(-c3ccccc3)o2)C1` [Example 40, 3-((4-oxo-3,4-dihydroquinazolin-2-yl)thio)-N-((1r,3r)-3-(5-phenyl-1,3,4-oxadiazol-2-yl)cyclobutyl)propanamide], the IC50 [4] is reported as 0.0891 nM and the IC50 (PARP2) is reported as 3970 nM.

For `O=C(CCCc1nc2ccccc2c(=O)[nH]1)N1CCC(n2cc(-c3ccccc3)[nH]c2=O)CC1` [Example 49, 2-(4-oxo-4-(4-(2-oxo-4-phenyl-2,3-dihydro-1H-imidazol-1-yl)-1-piperidinyl)butyl)-4(3H)-quinazolinone trifluoroacetic acid], the IC50 [4] was 118 nM, the EC50 ([1]; SW480, 24 h) was 5330 nM and the IC50 [2] was 530 nM.

Compound `O=C(CSc1nc2ccccc2c(=O)[nH]1)N[C@H]1CC[C@H](c2nnc(-c3ccccc3)o2)CC1` [Example 96, 2-((4-oxo-3,4-dihydroquinazolin-2-yl)thio)-N-((1r,4r)-4-(5-phenyl-1,3,4-oxadiazol-2-yl)cyclohexyl) acetamide] has an EC50 ([1]; SW480 cells, 24 hours) of 536 nM, an IC50 (PARP1) of 28.8 µM and an IC50 (PARP2) of 1570 nM. The IC50 [2] was 91.2 nM.

With `O=C(CCc1nc2ccc(F)cc2c(=O)[nH]1)N[C@H]1CC[C@H](c2nnc(-c3ccccc3)o2)CC1` [Example 101, 3-(6-fluoro-4-oxo-3,4-dihydroquinazolin-2-yl)-N-((1r,4r)-4-(5-phenyl-1,3,4-oxadiazol-2-yl)cyclohexyl)propanamide] the IC50 [3] was 15.2 nM, the EC50 ([1]; SW480 cells, 24 hours) was 783 nM and the IC50 (PARP1) was 0.936 µM. For the same compound, the IC50 (PARP2) was 421 nM and the IC50 [2] was 252 nM.

Compound `N#Cc1cccc(O[C@H]2CC[C@H](NC(=O)CCSc3nc4ccccc4c(=O)[nH]3)CC2)c1` [Example 109] has an EC50 ([1]; SW480 cells, 24 hours) of 50.9 nM, an IC50 (PARP1) of over 85 µM and an IC50 (PARP2) of over 170000 nM. The IC50 [2] was 47.8 nM.

In the case of `O=C(CCSc1nc2ccccc2c(=O)[nH]1)N[C@H]1CC[C@H](c2nnc(-c3ccc(F)cc3)o2)CC1` [Example 117, N-((1r,4r)-4-(5-(4-fluorophenyl)-1,3,4-oxadiazol-2-yl)cyclohexyl)-3-((4-oxo-3,4-dihydroquinazolin-2-yl)thio)propanamide], the IC50 [4] is reported as 0.269 nM, the IC50 [3] is reported as 3.98 nM and the EC50 ([1]; SW480 cells, 24 hours) is reported as 2.78 nM. The IC50 [2] was 1.23 nM.

`O=C(CCSc1nc2ccccc2c(=O)[nH]1)N[C@H]1CC[C@H](c2nnc(-c3cccc(F)c3)o2)CC1` [Example 119, N-((1r,4r)-4-(5-(3-fluorophenyl)-1,3,4-oxadiazol-2-yl)cyclohexyl)-3-((4-oxo-3,4-dihydroquinazolin-2-yl)thio)propanamide] was tested, and the IC50 [4] was 0.194 nM, the IC50 [3] was 3.34 nM and the EC50 ([1]; SW480 cells, 24 hours) was 5.72 nM. For the same compound, the IC50 [2] was 3 nM.

`O=C(CCSc1nccc(=O)[nH]1)N[C@H]1CC[C@H](c2nnc(-c3ccccc3)o2)CC1` [Example 123, 3-((6-oxo-1,6-dihydropyrimidin-2-yl)thio)-N-((1r,4r)-4-(5-phenyl-1,3,4-oxadiazol-2-yl)cyclohexyl)propanamide] gave an EC50 ([1]; SW480 cells, 24 hours) of 3330 nM, an IC50 (PARP1) of over 85 µM and an IC50 (PARP2) of over 170000 nM. It also gave an IC50 [2] of 2130 nM.

Compound `O=C(CCSc1nc2ccccc2c(=O)[nH]1)N[C@H]1CC[C@H](c2nnc(-c3ccc(Cl)cc3)o2)CC1` [Example 125, N-((1r,4r)-4-(5-(4-chlorophenyl)-1,3,4-oxadiazol-2-yl)cyclohexyl)-3-((4-oxo-3,4-dihydroquinazolin-2-yl)thio)propanamide] has an IC50 [4] of 1.52 nM, an IC50 [3] of 0.179 nM and an EC50 ([1]; SW480 cells, 24 hours) of 1.68 nM. For the same compound, the IC50 [2] was 1.93 nM.

Compound `O=C(CCc1nc2ccccc2c(=O)[nH]1)N[C@H]1CC[C@H](c2nnc(-c3ccc(F)cc3)o2)CC1` [Example 127, N-((1r,4r)-4-(5-(4-fluorophenyl)-1,3,4-oxadiazol-2-yl)cyclohexyl)-3-(4-oxo-3,4-dihydroquinazolin-2-yl)propanamide] has an IC50 [3] of 12.7 nM, an EC50 ([1]; SW480 cells, 24 hours) of 307 nM and an IC50 (PARP1) of 1.97 µM. The IC50 (PARP2) was 2310 nM and the IC50 [2] was 157 nM.

With `O=C(CCc1nc2ccccc2c(=O)[nH]1)N[C@H]1CC[C@H](c2nnc(-c3ccccc3Cl)o2)CC1` [Example 128, N-((1r,4r)-4-(5-(2-chlorophenyl)-1,3,4-oxadiazol-2-yl)cyclohexyl)-3-(4-oxo-3,4-dihydroquinazolin-2-yl)propanamide] the IC50 [3] was 81.3 nM, the EC50 ([1]; SW480 cells, 24 hours) was 1750 nM and the IC50 (PARP1) was 3.89 µM. The IC50 (PARP2) was 276 nM and the IC50 [2] was 592 nM.

In the case of `O=C(CCc1nc2ccccc2c(=O)[nH]1)N[C@H]1CC[C@H](c2nnc(-c3cccc(F)c3)o2)CC1` [Example 129, N-((1r,4r)-4-(5-(3-fluorophenyl)-1,3,4-oxadiazol-2-yl)cyclohexyl)-3-(4-oxo-3,4-dihydroquinazolin-2-yl)propanamide], the IC50 [3] is reported as 12.8 nM, the EC50 ([1]; SW480 cells, 24 hours) is reported as 435 nM and the IC50 (PARP1) is reported as 1.09 µM. For the same compound, the IC50 (PARP2) was 1960 nM and the IC50 [2] was 124 nM.

`O=C(CCc1nc2ccccc2c(=O)[nH]1)N[C@H]1CC[C@H](c2nnc(-c3cccc(Cl)c3)o2)CC1` [Example 130, N-((1r,4r)-4-(5-(3-chlorophenyl)-1,3,4-oxadiazol-2-yl)cyclohexyl)-3-(4-oxo-3,4-dihydroquinazolin-2-yl)propanamide] was tested, and the IC50 [3] was 7.92 nM, the EC50 ([1]; SW480 cells, 24 hours) was 240 nM and the IC50 (PARP1) was 0.998 µM. For the same compound, the IC50 (PARP2) was 944 nM and the IC50 [2] was 110 nM.

`O=C(CCc1nc2ccccc2c(=O)[nH]1)N[C@H]1CC[C@H](c2nnc(-c3ccccn3)o2)CC1` [Example 131, 3-(4-oxo-3,4-dihydroquinazolin-2-yl)-N-((1r,4r)-4-(5-(pyridin-2-yl)-1,3,4-oxadiazol-2-yl)cyclohexyl)propanamide] gave an IC50 [3] of 187 nM, an EC50 ([1]; SW480 cells, 24 hours) of 12100 nM and an IC50 (PARP1) of 5.65 µM. For the same compound, the IC50 [2] was 1770 nM.

For `N#Cc1ccc(-c2nnc([C@H]3CC[C@H](NC(=O)CCc4nc5ccccc5c(=O)[nH]4)CC3)o2)cc1` [Example 134, N-((1r,4r)-4-(5-(4-cyanophenyl)-1,3,4-oxadiazol-2-yl)cyclohexyl)-3-(4-oxo-3,4-dihydroquinazolin-2-yl)propanamide], the IC50 [3] was 14.2 nM, the IC50 (PARP2) was 2110 nM and the IC50 [2] was 253 nM.

In the case of `O=C(CCc1nc2ccccc2c(=O)[nH]1)N[C@H]1CC[C@H](c2nnc(-c3cccnc3)o2)CC1` [Example 136, 3-(4-oxo-3,4-dihydroquinazolin-2-yl)-N-((1r,4r)-4-(5-(pyridin-3-yl)-1,3,4-oxadiazol-2-yl)cyclohexyl)propanamide], the IC50 [3] is reported as 32.7 nM, the EC50 ([1]; SW480 cells, 24 hours) is reported as 1190 nM and the IC50 (PARP1) is reported as 10.8 µM. For the same compound, the IC50 (PARP2) was 1060 nM and the IC50 [2] was 960 nM.

`O=C(CCc1nc2ccccc2c(=O)[nH]1)N[C@H]1CC[C@H](c2nnc(C3CCCCC3)o2)CC1` [Example 138, N-((1r,4r)-4-(5-cyclohexyl-1,3,4-oxadiazol-2-yl)cyclohexyl)-3-(4-oxo-3,4-dihydroquinazolin-2-yl)propanamide] showed an EC50 ([1]; SW480 cells, 24 hours) of over 25000 nM, an IC50 (PARP1) of 5.45 µM and an IC50 (PARP2) of 2610 nM.

Compound `O=C(CCc1nc2ccccc2c(=O)[nH]1)N[C@H]1CC[C@H](c2nnc(Cc3ccccc3)o2)CC1` [Example 139, N-((1r,4r)-4-(5-benzyl-1,3,4-oxadiazol-2-yl)cyclohexyl)-3-(4-oxo-3,4-dihydroquinazolin-2-yl)propanamide] has an IC50 [3] of 624 nM, an EC50 ([1]; SW480 cells, 24 hours) of over 25000 nM and an IC50 (PARP1) of 8.22 µM. The IC50 (PARP2) was 1130 nM.

`CC(C)(c1ccccc1)c1nnc([C@H]2CC[C@H](NC(=O)CCc3nc4ccccc4c(=O)[nH]3)CC2)o1` [Example 140, 3-(4-oxo-3,4-dihydroquinazolin-2-yl)-N-((1r,4r)-4-(5-(2-phenylpropan-2-yl)-1,3,4-oxadiazol-2-yl)cyclohexyl)propanamide] showed an IC50 [4] of 1210 nM, an IC50 (PARP1) of 7.45 µM and an IC50 (PARP2) of 1290 nM.

`O=C(CCc1nc2ccccc2c(=O)[nH]1)N[C@H]1CC[C@H](c2nnc(-c3cnccn3)o2)CC1` [Example 142, 3-(4-oxo-3,4-dihydroquinazolin-2-yl)-N-((1r,4r)-4-(5-(pyrazin-2-yl)-1,3,4-oxadiazol-2-yl)cyclohexyl)propanamide] gave an IC50 [3] of 203 nM, an EC50 ([1]; SW480 cells, 24 hours) of 6490 nM and an IC50 (PARP1) of 5.47 µM. For the same compound, the IC50 (PARP2) was 1700 nM.

Compound `O=C(CC[S+]([O-])c1nc2ccccc2c(=O)[nH]1)N[C@H]1CC[C@H](c2nnc(-c3ccccc3)o2)CC1` (some centres unmarked) [Example 143, 3-((4-oxo-3,4-dihydroquinazolin-2-yl)sulfinyl)-N-((1r,4r)-4-(5-phenyl-1,3,4-oxadiazol-2-yl)cyclohexyl)propanamide] has an IC50 [4] of 17.9 nM, an IC50 [3] of 52.3 nM and an EC50 ([1]; SW480 cells, 24 hours) of 970 nM. It also gave an IC50 [2] of 929 nM.
